Starred links: 1 amine or outer side, 2 acyl side, 3 side chain; linkers in the order of their positions; H or OH if unused. Positions of bridges follow the written chain, without caps; N, C: chain ends. Non-standard residues stand in square brackets, D forms with d. Residues, ends and D or L forms follow the SMILES beside them. *: point of attachment. hPhe(3,5-F2-4-CF3) = N[C@@H](CCc1cc(F)c(C(F)(F)F)c(F)c1)C(=O)O; hPhe(3-Cl-4-CF3) = N[C@@H](CCc1ccc(C(F)(F)F)c(Cl)c1)C(=O)O; NEtPhe(4-CF3) = CCN[C@@H](Cc1ccc(C(F)(F)F)cc1)C(=O)O; NMePhe(4-CF3) = CN[C@@H](Cc1ccc(C(F)(F)F)cc1)C(=O)O; hPhe(4-CF3) = N[C@@H](CCc1ccc(C(F)(F)F)cc1)C(=O)O; X17 = Cc1cncc(C[C@@H](C(=O)[*:2])N(C)[*:1])c1; NMeAbu(4,4,4-F3) = CN[C@@H](CC(F)(F)F)C(=O)O; NMePhe(3-Cl) = CN[C@@H](Cc1cccc(Cl)c1)C(=O)O; NMePhe(4-Cl) = CN[C@@H](Cc1ccc(Cl)cc1)C(=O)O; NMePhe(4-Me) = CN[C@@H](Cc1ccc(C)cc1)C(=O)O; NMedβ3hAla = C[C@H](CC(=O)[*:2])N(C)[*:1]; NMeGly(cPent) = CN[C@H](C(=O)O)C1CCCC1; Phe(3-I) = N[C@@H](Cc1cccc(I)c1)C(=O)O; Pro(4,4-F2) = O=C(O)[C@@H]1CC(F)(F)CN1; NMe3Pal = CN[C@@H](Cc1cccnc1)C(=O)O; NMeCha = CN[C@@H](CC1CCCCC1)C(=O)O; NMehLeu = CN[C@@H](CCC(C)C)C(=O)O; NMeChg = CN[C@H](C(=O)O)C1CCCCC1; NMeI = CC[C@H](C)[C@H](NC)C(=O)O; dNMeF = CN[C@H](Cc1ccccc1)C(=O)O; N(CH2CH2)2CF2 = FC1(F)CCN(*)CC1; Gly(cPr) = N[C@H](C(=O)O)C1CC1; NMeD = CN[C@@H](CC(=O)O)C(=O)O; NMeL = CN[C@@H](CC(C)C)C(=O)O; NMeV = CN[C@H](C(=O)O)C(C)C; d(β3hA) = C[C@@H](N)CC(=O)O; Morpholide = C1CN(*)CCO1; NMeA = CN[C@@H](C)C(=O)O; NMeAib = CNC(C)(C)C(=O)O; Piperidide = C1CCN(*)CC1; Pra = C#CC[C@H](N)C(=O)O; Ac5c = NC1(C(=O)O)CCCC1; Aze = O=C(O)[C@@H]1CCN1; Ac4c = NC1(C(=O)O)CCC1; Cyclobutyl = C1CC(*)C1; Aib = CC(C)(N)C(=O)O; Sar = CNCC(=O)O
molecular target: T1, Kras and SOS1 (biotin-tagged human Kras loaded with GDP, His-tagged human SOS1) (Homo sapiens, UniProt P01116, G12D); test: Protein-protein interaction inhibition between Kras and SOS1 (KrasGl2D-SOS PPI) using AlphaScreen; type: binding; conditions: AlphaScreen; biotin-tagged human Kras loaded with GDP, His-tagged human SOS1; read-out: KRAS G12D-SOS PPI IC50
T1 construct: made in house; host or cells: E. coli (stated for Kras only)
T1 sequence (P01116 1-188 isoform P01116-2 G12D): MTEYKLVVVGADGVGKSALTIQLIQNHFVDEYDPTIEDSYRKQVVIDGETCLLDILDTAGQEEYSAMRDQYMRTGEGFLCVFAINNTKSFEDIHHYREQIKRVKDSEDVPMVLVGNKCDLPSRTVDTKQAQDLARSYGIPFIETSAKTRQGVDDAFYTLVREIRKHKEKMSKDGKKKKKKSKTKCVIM
Protocol: Protein-Protein Interaction Inhibition Between Kras and SOS1 (KrasGl2D-SOS PPI) Using AlphaScreen
Protein-protein interaction inhibition (PPI) between Kras and SOS1 was measured by energy transfer from nickel-conjugated donor beads to streptavidin-conjugated acceptor beads using biotin-tagged human Kras expressed in E. coli and loaded with GDP after purification and His-tagged human SOS1 enzyme. This measurement utilizes the phenomenon in which donor beads are irradiated with light at 680 nm, such that energy is transferred to acceptor beads through singlet oxygen and light at 520-620 nm is detected from the acceptor beads.
Inhibition of binding between K-ras and SOS1 is known to inhibit signaling downstream of Kras.

Compound	IC50 [nM]
CC[C@H](C)[C@@H]1NC(=O)[C@H](CC(C)C)N(C)C(=O)C[C@@H](C(=O)N2CCCCC2)N(C)C(=O)[C@H]([C@@H](C)CC)N(C)C(=O)C2(CCCC2)NC(=O)[C@@H](Cc2ccccc2)N(C)C(=O)[C@H](CCc2cc(F)c(C(F)(F)F)c(F)c2)NC(=O)CN(C)C(=O)[C@H](Cc2ccc(C)cc2)N(C)C(=O)[C@@H]2CCN2C(=O)[C@H](C)N(C)C1=O [Compound 1895] ([NMeL]I[NMeA][Aze][NMePhe(4-Me)][Sar][hPhe(3,5-F2-4-CF3)][dNMeF][Ac5c][NMeI][NMeD]-Piperidide; lactam N-11)	360
CC[C@H](C)[C@@H]1NC(=O)[C@H](C)N(C)C(=O)C[C@@H](C)NC(=O)[C@H](C2CCCC2)N(C)C(=O)C2(CCCC2)NC(=O)[C@@H]2CCCN2C(=O)[C@H](CCc2ccc(C(F)(F)F)c(Cl)c2)NC(=O)CN(C)C(=O)[C@H](Cc2ccc(Cl)cc2)N(C)C(=O)[C@@H]2CCCN2C(=O)CN(C)C1=O [Compound 549] (cyclo([Ac5c][NMeGly(cPent)][d(β3hA)][NMeA]I[Sar]P[NMePhe(4-Cl)][Sar][hPhe(3-Cl-4-CF3)]P))	4
CC[C@H](C)[C@@H]1NC(=O)[C@H](CC(C)C)N(C)C(=O)C[C@@H](C(=O)N(C)C)N(C)C(=O)[C@H](C2CCCC2)N(C)C(=O)C2(CCCC2)NC(=O)[C@H](Cc2cccc(Cl)c2)N(C)C(=O)[C@H](CCc2ccc(C(F)(F)F)c(Cl)c2)NC(=O)CN(C)C(=O)[C@H](CC2CCCCC2)N(C)C(=O)[C@@H]2CCN2C(=O)[C@H](C)N(C)C1=O [Compound 179] ([NMeL]I[NMeA][Aze][NMeCha][Sar][hPhe(3-Cl-4-CF3)][NMePhe(3-Cl)][Ac5c][NMeGly(cPent)][NMeD]-NMe2; lactam N-11)	42
CC[C@H](C)[C@@H]1NC(=O)[C@H](CC(C)C)N(C)C(=O)C[C@@H](C(=O)N2CCCCC2)N(C)C(=O)[C@H](C2CCCCC2)N(C)C(=O)C2(CCCC2)NC(=O)[C@H](Cc2cncc(C)c2)N(C)C(=O)[C@H](CCc2ccc(C(F)(F)F)c(Cl)c2)NC(=O)CN(C)C(=O)[C@H](CC2CCCCC2)N(C)C(=O)[C@@H]2CCN2C(=O)[C@H](C)N(C)C1=O [Compound 338] ([NMeL]I[NMeA][Aze][NMeCha][Sar][hPhe(3-Cl-4-CF3)][X17][Ac5c][NMeChg][NMeD]-Piperidide; lactam N-11)	220
CC[C@H](C)[C@@H]1NC(=O)[C@H](C)N(C)C(=O)C[C@@H](C(=O)N2CCOCC2)N(C)C(=O)[C@H](C2CCCCC2)N(C)C(=O)C2(CCCC2)NC(=O)[C@H](Cc2cccnc2)N(C)C(=O)[C@H](CCc2ccc(C(F)(F)F)c(Cl)c2)NC(=O)CN(C)C(=O)[C@H](CC2CCCCC2)N(C)C(=O)[C@@H]2CCN2C(=O)CN(C)C1=O [Compound 1703] ([NMeA]I[Sar][Aze][NMeCha][Sar][hPhe(3-Cl-4-CF3)][NMe3Pal][Ac5c][NMeChg][NMeD]-Morpholide; lactam N-11)	0.41
C#CC[C@@H]1NC(=O)[C@H](Cc2cccc(I)c2)NC(=O)CN(C)C(=O)[C@H](Cc2ccc(Cl)cc2)N(C)C(=O)CN(C)C(=O)CN(C)C(=O)[C@H]([C@@H](C)CC)NC(=O)[C@H](CC(C)C)N(C)C(=O)C[C@@H](C(=O)N2CCCCC2)N(C)C(=O)[C@H](CC(C)C)NC(=O)C(C)(C)N(C)C1=O [Compound 1426] ([NMeL]I[Sar][Sar][NMePhe(4-Cl)][Sar][Phe(3-I)][Pra][NMeAib]L[NMeD]-Piperidide; lactam N-11)	48
CC(C)C[C@H]1C(=O)N[C@@H](COC2CCC2)C(=O)N(C)CC(=O)N(C)CC(=O)N(C)[C@@H](CC2CCCCC2)C(=O)N(C)CC(=O)N[C@@H](CCc2ccc(C(F)(F)F)c(Cl)c2)C(=O)N2CCC[C@H]2C(=O)NC2(CCCC2)C(=O)N(C)[C@@H](C2CCCCC2)C(=O)N(C)[C@H](C(=O)N2CCCCC2)CC(=O)N1C [Compound 226] ([NMeL]S(Cyclobutyl)[Sar][Sar][NMeCha][Sar][hPhe(3-Cl-4-CF3)]P[Ac5c][NMeChg][NMeD]-Piperidide; lactam N-11)	3.5
CC[C@H](C)[C@@H]1NC(=O)[C@H](CC(C)C)N(C)C(=O)C[C@@H](C)N(C)C(=O)[C@H]([C@@H](C)CC)N(C)C(=O)C2(CCC2)NC(=O)[C@@H]2CC(F)(F)CN2C(=O)[C@H](CCc2ccc(C(F)(F)F)c(Cl)c2)NC(=O)CN(C)C(=O)[C@H](Cc2ccc(C(F)(F)F)cc2)N(C)C(=O)CN(C)C(=O)CN(C)C1=O [Compound 1074] (cyclo([Ac4c][NMeI][NMedβ3hAla][NMeL]I[Sar][Sar][NMePhe(4-CF3)][Sar][hPhe(3-Cl-4-CF3)][Pro(4,4-F2)]))	11
CC[C@H](C)[C@@H]1NC(=O)[C@H](CC(C)C)N(C)C(=O)C[C@@H](C(=O)N2CCCCC2)N(C)C(=O)[C@H](C(C)C)N(C)C(=O)C2(CCC2)NC(=O)[C@H](CC(=O)N2CCC(F)(F)CC2)N(C)C(=O)[C@H](CCc2ccc(C(F)(F)F)c(Cl)c2)NC(=O)CN(C)C(=O)[C@H](CC2CCCCC2)N(C)C(=O)CN(C)C(=O)CN(C)C1=O [Compound 251] ([NMeL]I[Sar][Sar][NMeCha][Sar][hPhe(3-Cl-4-CF3)][NMeD](N(CH2CH2)2CF2)[Ac4c][NMeV][NMeD]-Piperidide; lactam N-11)	3.8
CC[C@H](C)[C@@H]1NC(=O)[C@H](C)N(C)C(=O)C[C@@H](C)NC(=O)[C@H](CC(C)C)N(C)C(=O)C(C)(C)NC(=O)[C@@H]2CCCN2C(=O)[C@H](CCc2ccc(C(F)(F)F)cc2)NC(=O)CN(C)C(=O)[C@H](Cc2ccc(Cl)cc2)N(C)C(=O)CN(C)C(=O)CN(C)C1=O [Compound 664] (cyclo([Aib][NMeL][d(β3hA)][NMeA]I[Sar][Sar][NMePhe(4-Cl)][Sar][hPhe(4-CF3)]P))	25
CC[C@H](C)[C@@H]1NC(=O)[C@H](CC(C)C)N(C)C(=O)C[C@@H](C(=O)N2CCCCC2)N(C)C(=O)[C@H](C2CCCCC2)N(C)C(=O)C2(CCCC2)NC(=O)[C@@H]2CCCN2C(=O)[C@H](CCc2ccc(C(F)(F)F)c(Cl)c2)NC(=O)CN(C)C(=O)[C@H](CC(F)(F)F)N(C)C(=O)CN(C)C(=O)CN(C)C1=O [Compound 1841] ([NMeL]I[Sar][Sar][NMeAbu(4,4,4-F3)][Sar][hPhe(3-Cl-4-CF3)]P[Ac5c][NMeChg][NMeD]-Piperidide; lactam N-11)	4.4
CC[C@H](C)[C@@H]1NC(=O)[C@H](CC(C)C)N(C)C(=O)C[C@@H](C(=O)N2CCCCC2)N(C)C(=O)[C@H](C(C)C)N(C)C(=O)C2(CCCC2)NC(=O)[C@@H]2CCCN2C(=O)[C@H](CCc2ccc(C(F)(F)F)c(Cl)c2)NC(=O)CN(C)C(=O)[C@H](CC2CCCCC2)N(C)C(=O)[C@@H]2CCN2C(=O)[C@H](CCC(C)C)N(C)C1=O [Compound 1577] ([NMeL]I[NMehLeu][Aze][NMeCha][Sar][hPhe(3-Cl-4-CF3)]P[Ac5c][NMeV][NMeD]-Piperidide; lactam N-11)	50
COC[C@@H]1NC(=O)[C@H](CC(C)C)N(C)C(=O)C[C@@H](C(=O)N2CCCCC2)N(C)C(=O)[C@H](C(C)C)N(C)C(=O)C2(CCCC2)NC(=O)[C@@H]2CCCN2C(=O)[C@H](CCc2ccc(C(F)(F)F)c(Cl)c2)NC(=O)CN(C)C(=O)[C@H](CC2CCCCC2)N(C)C(=O)[C@@H]2CCN2C(=O)[C@H](C)N(C)C1=O [Compound 7] ([NMeL]S(Me)[NMeA][Aze][NMeCha][Sar][hPhe(3-Cl-4-CF3)]P[Ac5c][NMeV][NMeD]-Piperidide; lactam N-11)	18
CC(C)C[C@H]1C(=O)N[C@@H](C2CC2)C(=O)N(C)CC(=O)N(C)CC(=O)N(C)[C@@H](CC2CCCCC2)C(=O)N(C)CC(=O)N[C@@H](CCc2ccc(C(F)(F)F)c(Cl)c2)C(=O)N2CCC[C@H]2C(=O)NC2(CCCC2)C(=O)N(C)[C@@H](C(C)C)C(=O)N(C)[C@H](C(=O)N2CCCCC2)CC(=O)N1C [Compound 533] ([NMeL][Gly(cPr)][Sar][Sar][NMeCha][Sar][hPhe(3-Cl-4-CF3)]P[Ac5c][NMeV][NMeD]-Piperidide; lactam N-11)	8.5
CC[C@H](C)[C@@H]1NC(=O)[C@H](CCC(C)C)N(C)C(=O)C[C@@H](C(=O)N(C)C)N(C)C(=O)[C@H](C2CCCC2)N(C)C(=O)C2(CCCC2)NC(=O)[C@@H]2CCCN2C(=O)[C@H](CCc2ccc(C(F)(F)F)c(Cl)c2)NC(=O)CN(C)C(=O)[C@H](Cc2ccc(C)cc2)N(C)C(=O)[C@@H]2CCN2C(=O)[C@H](C)NC1=O [Compound 303, (5S,8S,11S,15S,18S,23aS,29S,35S,37aS)-8-((S)-sec-butyl)-29-(3-chloro-4-(trifluoromethyl)phenethyl)-18-cyclopentyl-11-isopentyl-N,N,5,12,16,19,33,36-octamethyl-35-(4-methylbenzyl)-4,7,10,13,17,20,23,28,31,34,37-undecaoxotetratriacontahydro-2H,4H-spiro[azeto[2,1-u]pyrrolo[2,1-i][1,4,7,10,13,16,19,22,25,28,31]undecaazacyclotetratriacontine-21,1′-cyclopentane]-15-carboxamide] ([NMehLeu]IA[Aze][NMePhe(4-Me)][Sar][hPhe(3-Cl-4-CF3)]P[Ac5c][NMeGly(cPent)][NMeD]-NMe2; lactam N-11)	0.68
CC[C@H](C)[C@@H]1NC(=O)[C@H](CC(C)C)N(C)C(=O)C[C@@H](C)N(C)C(=O)[C@H]([C@@H](C)CC)N(C)C(=O)C2(CCC2)NC(=O)[C@@H]2CC(F)(F)CN2C(=O)[C@H](CCc2ccc(C(F)(F)F)c(Cl)c2)NC(=O)CN(C)C(=O)[C@H](Cc2ccc(C(F)(F)F)cc2)N(CC)C(=O)[C@@H]2CCN2C(=O)[C@H](C)N(C)C1=O [Compound 833] (cyclo([Ac4c][NMeI][NMedβ3hAla][NMeL]I[NMeA][Aze][NEtPhe(4-CF3)][Sar][hPhe(3-Cl-4-CF3)][Pro(4,4-F2)]))	9.1

— patent US12371454B2, “Cyclic peptide compound having Kras inhibitory action” (priority 2019, dated 2025)
